Measured values published in patent US8158646B2, “Antifungal and antiparasitic indoloquinoline derivates” (Florida Agricultural and Mechanical University, priority 2006, dated 2012).
Values after ≈ are worked out from the molar mass of the structure shown. Like-named read-outs stand apart in the source and are kept apart here. Marks after values point to notes of the source that are not given here.

Experiments:
[1] = system: Plasmodium falciparum D6 Clone; assay: Antimalarial testing, D6 clone; assay type: cell-based; settings: for IC50: Plasmodium falciparum; for SI (D6): SI = IC50 (vero cells)/IC50 (Pf)
Experimental: (§1) All organisms were obtained from the American Type Culture Collection (Manassas, Va.). Susceptibility testing was performed using a modified version of the NCCLS methods [a) National Committee for Clinical Laboratory Standards. 2000. Methods for dilution antimicrobial susceptibility tests for bacteria that grow aerobically. M7-A5. […] Approved standard M27-A. National Committee for Clinical Laboratory Standards, Wayne, Pa. c) National Committee for Clinical Laboratory Standards. 2000. Susceptibility testing of mycobacteria, nocardia, and other aerobic actinomycetes, 2nd ed. Tentative standard M24- T2. […] Briefly, samples (dissolved in DMSO) were serially diluted by using 0.9% saline and transferred in duplicate to 96-well microplates. Microbial inocula were prepared after comparison of the absorbance (at 630 nm) of cell suspensions to the 0.5 McFarland standard and dilution of the suspensions in broth (Sabouraud dextrose and cation-adjusted Mueller-Hinton broth [Difco] for the fungi and bacteria, respectively, and 5% Alamar blue [BioSource international] in Middlebrook 7H9 broth with oleic acid-albumin-dextrose-catalase enrichment for M intracellulare) to afford recommended inoculum sizes. Microbial inocula were added to the samples to achieve a final volume of 200 μl and final sample concentrations starting with 100 μg/ml. Growth, solvent, and medium controls were included on each test plate. […] Antimalarial and cytotoxicity testing were conducted in a similar manner as previously reported [a) Muhammad, 1.; Bedir, E.; Khan, S. I.; Tekwani, B. L.; Khan, I. A.; Takamatsu, S.; Pelletier, 1.; Walker, L. A. J Nat Prod.

[2] = system: Mycobacterium intracellulare ATCC 23068; assay: Modified Alamar blue procedure, Mi; assay type: cell-based; settings: ATCC23068, read-out: IC50 Mi
Experimental: (§2) Compounds were evaluated in vitro against a panel of microorganisms, including Candida albicans ATCC 90028 (Ca), C. krusei ATCC 6258 (Ck), Cryptococcus neoformans ATCC 90113 (Cn), Staphylococcus aureus ATCC 29213 (Sa), methicillin-resistant S. aureus ATCC 43300 (MRSA), Pseudomonas aeruginosa ATCC 27853 (Pa), Aspergilllus fumigatus ATCC 90906 (Aj), and Mycobacterium intracellulare ATCC 23068 (Mi) as previously reported [Guoyi, M.; Khan, S.; Jacob, M. R; Tekwani, B. L.; Li, Z.; Pasco, D. S.; Walker, L. A.; Khan, 1. A.; Antimicrob Agents Chemother, 2004, 48, 4450-4452]. All organisms were obtained from the American Type Culture Collection (Manassas, Va.). Susceptibility testing was performed using a modified version of the NCCLS methods [a) National Committee for Clinical Laboratory Standards. 2000. Methods for dilution antimicrobial susceptibility tests for bacteria that grow aerobically. M7-A5. National Committee for Clinical Laboratory Standards, Wayne, Pa. b) National Committee for Clinical Laboratory Standards, 1997, Reference method for broth dilution antifungal susceptibility testing of yeasts. Approved standard M27-A. National Committee for Clinical Laboratory Standards, Wayne, Pa. c) National Committee for Clinical Laboratory Standards. 2000. Susceptibility testing of mycobacteria, nocardia, and other aerobic actinomycetes, 2nd ed. Tentative standard M24- T2. National Committee for Clinical Laboratory Standards, Wayne, Pa.] for all organisms except for M intracellulare, for which the modified Alamar blue procedure described by Franzblau et al [1998. J Clin Microbiol, 36, 362-366] was followed. Briefly, samples (dissolved in DMSO) were serially diluted by using 0.9% saline and transferred in duplicate to 96-well microplates. Microbial inocula were prepared after comparison of the absorbance (at 630 nm) of cell suspensions to the 0.5 McFarland standard and dilution of the suspensions in broth (Sabouraud dextrose and cation-adjusted Mueller-Hinton broth [Difco] for the fungi and bacteria, respectively, and 5% Alamar blue [BioSource international] in Middlebrook 7H9 broth with oleic acid-albumin-dextrose-catalase enrichment for M intracellulare) to afford recommended inoculum sizes. Microbial inocula were added to the samples to achieve a final volume of 200 μl and final sample concentrations starting with 100 μg/ml. Growth, solvent, and medium controls were included on each test plate. The plates were read at either 630 nm or excitation and emission wavelengths of 544 and 590 nm (for Mi) prior to and after incubation. Percent growth was calculated and plotted with the concentration tested to afford the concentration that inhibits 50% of growth (IC50). […]

C. krusei ATCC 6258 = assay: Antimicrobial susceptibility testing, Ck; assay type: cell-based, Candida krusei; settings: Pichia kudriavzevii
Experimental: as §2, with “National Committee for Clinical Laboratory Standards, Wayne, Pa.] for all organisms except for M intracellulare, for which the modified Alamar blue procedure described by Franzblau et al [1998. J Clin Microbiol, 36, 362-366] was followed. Briefly, samples (dissolved in DMSO) were serially diluted by using 0.9% saline and transferred in duplicate to 96-well microplates.” left out, “Microbial inocula were added to the samples to achieve a final volume of 200 μl and final sample concentrations starting with 100 μg/ml. Growth, solvent, and medium controls were included on each test plate.” left out, “incubation.” for “incubation. Percent growth was calculated and plotted with the concentration tested to afford the concentration that inhibits 50% of growth (IC50).”

[3] = system: Aspergillus fumigatus ATCC 90906; assay: Antimicrobial susceptibility testing, Af; assay type: cell-based; settings: ATCC90906, read-out: IC50 Af
Experimental: as §2

Vero cells = assay: Cytotoxicity to mammalian cells (Vero); assay type: cell-based
Experimental: as §1

[4] = system: Plasmodium falciparum W2 Clone; assay: Antimalarial testing, W2 clone; assay type: cell-based; settings: for IC50: Plasmodium falciparum; for SI (W2): SI = IC50 (vero cells)/IC50 (Pf)
Experimental: (§3) Compounds were evaluated in vitro against a panel of microorganisms, including Candida albicans ATCC 90028 (Ca), C. krusei ATCC 6258 (Ck), Cryptococcus neoformans ATCC 90113 (Cn), Staphylococcus aureus ATCC 29213 (Sa), methicillin-resistant S. aureus ATCC 43300 (MRSA), Pseudomonas aeruginosa ATCC 27853 (Pa), Aspergilllus fumigatus ATCC 90906 (Aj), and Mycobacterium intracellulare ATCC 23068 (Mi) as previously reported [Guoyi, M.; Khan, S.; Jacob, M. R; Tekwani, B. L.; Li, Z.; Pasco, D. S.; Walker, L. A.; Khan, 1. A.; Antimicrob Agents Chemother, 2004, 48, 4450-4452]. All organisms were obtained from the American Type Culture Collection (Manassas, Va.). Susceptibility testing was performed using a modified version of the NCCLS methods [a) National Committee for Clinical Laboratory Standards. 2000. Methods for dilution antimicrobial susceptibility tests for bacteria that grow aerobically. M7-A5. National Committee for Clinical Laboratory Standards, Wayne, Pa. b) National Committee for Clinical Laboratory Standards, 1997, Reference method for broth dilution antifungal susceptibility testing of yeasts. Approved standard M27-A. National Committee for Clinical Laboratory Standards, Wayne, Pa. c) National Committee for Clinical Laboratory Standards. 2000. Susceptibility testing of mycobacteria, nocardia, and other aerobic actinomycetes, 2nd ed. Tentative standard M24- T2. National Committee for Clinical Laboratory Standards, Wayne, Pa.] for all organisms except for M intracellulare, for which the modified Alamar blue procedure described by Franzblau et al [1998. J Clin Microbiol, 36, 362-366] was followed. Briefly, samples (dissolved in DMSO) were serially diluted by using 0.9% saline and transferred in duplicate to 96-well microplates. Microbial inocula were prepared after comparison of the absorbance (at 630 nm) of cell suspensions to the 0.5 McFarland standard and dilution of the suspensions in broth (Sabouraud dextrose and cation-adjusted Mueller-Hinton broth [Difco] for the fungi and bacteria, respectively, and 5% Alamar blue [BioSource international] in Middlebrook 7H9 broth with oleic acid-albumin-dextrose-catalase enrichment for M intracellulare) to afford recommended inoculum sizes. Microbial inocula were added to the samples to achieve a final volume of 200 μl and final sample concentrations starting with 100 μg/ml. Growth, solvent, and medium controls were included on each test plate. The plates were read at either 630 nm or excitation and emission wavelengths of 544 and 590 nm (for Mi) prior to and after incubation. Percent growth was calculated and plotted with the concentration tested to afford the concentration that inhibits 50% of growth (IC50). Antimalarial and cytotoxicity testing were conducted in a similar manner as previously reported [a) Muhammad, 1.; Bedir, E.; Khan, S. I.; Tekwani, B. L.; Khan, I. A.; Takamatsu, S.; Pelletier, 1.; Walker, L. A. J Nat Prod. 2004, 67, 772-7. b) Muhammad, 1.; Dunbar, D. C.; Khan, S. 1.; Tekwani, B. L.; Bedir, E.; Takamatsu, S.; Ferreira, D, Walker L A., J Nat Prod. 2003, 66, 962-7].

[5] = system: methicillin-resistant S. aureus ATCC 43300; assay: Antimicrobial susceptibility testing, MRSA; assay type: cell-based, Staphylococcus aureus; settings: read-out: IC50 MRSA
Experimental: as §2

[6] = system: Cryptococcus neoformans ATCC 90113; assay: Antifungal susceptibility testing (modified NCCLS), Cn; assay type: cell-based; settings: for IC50 Cn: NA not defined in Table 1
Experimental: as §3

[7] = system: Candida albicans ATCC 90028; assay: Antifungal susceptibility testing (modified NCCLS), Ca; assay type: cell-based; settings: for IC50 Ca: NA not defined in Table 1
Experimental: as §3

[8] = system: Staphylococcus aureus ATCC 29213; assay: Antimicrobial susceptibility testing, Sa; assay type: cell-based; settings: ATCC29213
Experimental: (§4) Compounds were evaluated in vitro against a panel of microorganisms, including Candida albicans ATCC 90028 (Ca), C. krusei ATCC 6258 (Ck), Cryptococcus neoformans ATCC 90113 (Cn), Staphylococcus aureus ATCC 29213 (Sa), methicillin-resistant S. aureus ATCC 43300 (MRSA), Pseudomonas aeruginosa ATCC 27853 (Pa), Aspergilllus fumigatus ATCC 90906 (Aj), and Mycobacterium intracellulare ATCC 23068 (Mi) as previously reported [Guoyi, M.; Khan, S.; Jacob, M. R; Tekwani, B. L.; Li, Z.; Pasco, D. S.; Walker, L. A.; Khan, 1. A.; Antimicrob Agents Chemother, 2004, 48, 4450-4452]. All organisms were obtained from the American Type Culture Collection (Manassas, Va.). Susceptibility testing was performed using a modified version of the NCCLS methods [a) National Committee for Clinical Laboratory Standards. 2000. […] Microbial inocula were prepared after comparison of the absorbance (at 630 nm) of cell suspensions to the 0.5 McFarland standard and dilution of the suspensions in broth (Sabouraud dextrose and cation-adjusted Mueller-Hinton broth [Difco] for the fungi and bacteria, respectively, and 5% Alamar blue [BioSource international] in Middlebrook 7H9 broth with oleic acid-albumin-dextrose-catalase enrichment for M intracellulare) to afford recommended inoculum sizes. […] The plates were read at either 630 nm or excitation and emission wavelengths of 544 and 590 nm (for Mi) prior to and after incubation. […]

[9] = system: Pseudomonas aeruginosa ATCC 27853; assay: Antimicrobial susceptibility testing, Pa; assay type: cell-based; settings: ATCC27853, NA = Not active up to 20 μg/ml
Experimental: as §4

[10] = D6 Clone, read-out: Plasmodium falciparum IC50 Pf (D6)
[11] = ATCC90113, NA not defined in Table 1, read-out: IC50 Cn
[12] = ATCC90028, NA not defined in Table 1, read-out: IC50 Ca
[13] = W2 Clone, NA = Not active up to 20 μg/ml, read-out: Plasmodium falciparum IC50 Pf (W2)
[14] = Methicillin-Resistant Staphylococcus aureus

Compound	SI (D6) ([1]; D6 Clone)	IC50 [2] [µg/mL]	IC50 [3] [µg/mL]	SI (W2) ([4]; W2 Clone)	IC50 Cn [6]	IC50 Ca [7] [µg/mL]	IC50 [1, 10] [µg/mL]	IC50 [6, 11] [µg/mL]	IC50 [7, 12] [µg/mL]	Cytotoxicity (Vero) TC50 (Vero cells; African green monkey) [µg/mL]	no cytotoxicity up to (concentration) (Vero cells; African green monkey) [µg/mL]	IC50 [4, 13] [µg/mL]	IC50 [5, 14] [µg/mL]	further results
Cn1c2c3ccccc3nc-2cc2ccccc21 [Compound 2b, cryptolepine, reference compound]	54	15 (≈ 64.6 µM)	> 20	18.5										IC50 ([1]; D6, read-out: Plasmodium falciparum IC50 Pf (D6)): 0.044 µg/mL (≈ 0.189 µM); IC50 (C. krusei ATCC 6258; ATCC6258, read-out: IC50 Ck): 4.5 µg/mL (≈ 19.4 µM); Cytotoxicity (Vero) TC50 (Vero cells; Vero cells, NC = No Cytotoxicity observed up to 5 μg/ml): 2.4 µg/mL; IC50 ([4]; W2, read-out: Plasmodium falciparum IC50 Pf (W2)): 0.13 µg/mL (≈ 0.56 µM); IC50 ([5]; Staphylococcus aureus): 20 µg/mL (≈ 86.1 µM)
Cn1c2ccccc2c2c1cc1ccccc1[n+]2CCCCCc1ccccc1.[Br-] [Compound 7b]					4.3 µg/mL	4.3								
C[n+]1c(-c2ccccc2)ccc2ccccc21 [Compound 8a]														IC50 ([6]; ATCC90113, read-out: IC50 Cn): 43 µg/mL; melting point: 196 to 198 °C; IC50 ([7]; ATCC90028, read-out: IC50 Ca): 180 µg/mL
c1ccc2c(c1)cc1[nH]c3ccccc3c1[n+]2CCCCC[n+]1c2ccccc2cc2[nH]c3ccccc3c21 [Compound 10]	>18.3	7	20	>23.8			1.3	1.5	> 50	>23.8	> 23.8	1	3	IC50 [8]: 3 µg/mL; IC50 [9]: 1.5 µg/mL
C[n+]1c2ccccc2cc2c1c1ccccc1n2CCCCCn1c2ccccc2c2c1cc1ccccc1[n+]2C [Compound 12]	>91.5	15	20	>170			0.26	2	2	>23.8	> 23.8	0.14	6	IC50 (C. krusei ATCC 6258; ATCC6258, Candida krusei, read-out: IC50 Ck): 15 µg/mL
cryptolepine [Compound 2b, reference compound]					15.6^d μg/ml	0.8 to 180								
